Where a SMILES comes first, the peptide text is derived from it. [ ]: non-standard residue; d: D form. The star is where a group is joined. NHCH2CH2OH = OCCN*; For = O=C*
Columns and labels:
[1] = test system: P388 mouse leukemia cells; conditions: 92 h
How it was run: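 P388 cells at 1 × 10^4 cells/mL (final) were exposed to library peptides (stocks diluted 250-fold in RPMI1640/10% FBS) for 92 h at 37 °C, 5% CO2. Viable cells were counted by WST-1/1-methoxy PMS (4 h), absorbance 415 nm, and expressed as cell viability (%).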

[2] = H+/Na+ transport assay of bead-derived peptides (one-point); assay type: biochemical; set-up: key: relative activity; mean of two control wells = 1.00; conditions: bead-derived peptide solution, EYPC/EYPG LUVs;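 further: relative to parent gramicidin A activity set to 1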
How it was run: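 Pyranine (1.0 mM)-loaded LUVs containing egg yolk phosphatidylglycerol were prepared by film hydration, sonication and extrusion, then mixed with diluted bead-derived peptide in 96-well format and vortexed 30 min at room temperature. Fluorescence was normalized between untreated LUVs (0%) and Triton X-100 lysis (100%).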

[3] = test system: Streptococcus pyogenes SSI-9; assay: Antibacterial activity assay of bead-derived peptides (three concentrations); assay type: cell-based; set-up: key: +++: inhibition by the 640-fold diluted peptide solution; ++: inhibition by the 160-fold diluted solution; +: inhibition by the 40-fold diluted solution; -: no inhibition; conditions: S. pyogenes, bead-derived peptide solution, three concentrations
How it was run: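 Undiluted, 4-fold and 16-fold DMSO-diluted peptide stocks; S. pyogenes SSI-9, 2 × 10^5 CFU, cation-adjusted MHB (50 mg/L Ca2+, 25 mg/L Mg2+) + 5% laked horse blood; 37 °C, 18 h; readout = cell pellet visible or not.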

SMILES	cell viability/% [1]	H+/Na+ transport activity normalized against the value of 1 (1.00) [2]	antibacterial activity [3]
CC(C)C[C@@H](NC(=O)[C@H](C)NC(=O)CNC(=O)[C@@H](NC=O)C(C)C)C(=O)N[C@@H](C)C(=O)N[C@H](CC(C)C)C(=O)N[C@H](C(=O)N[C@H](CC(C)C)C(=O)N[C@@H](Cc1c[nH]c2ccccc12)C(=O)N[C@@H](C(=O)N[C@@H](Cc1c[nH]c2ccccc12)C(=O)N[C@@H](C(=O)N[C@@H](Cc1c[nH]c2ccccc12)C(=O)N[C@@H](C(=O)N[C@@H](Cc1c[nH]c2ccccc12)C(=O)NCCO)C(C)C)[C@H](C)O)C(C)C)C(C)C [compound 8722] (For-VGA[dL]A[dL]V[dL]W[dV]W[dT]W[dV]W-NHCH2CH2OH)	70.8%	1.09	-
CC(C)C[C@@H](NC(=O)[C@H](C)NC(=O)CNC(=O)[C@@H](NC=O)C(C)C)C(=O)N[C@@H](C)C(=O)N[C@H](CC(C)C)C(=O)N[C@H](C(=O)N[C@@H](C(=O)N[C@@H](Cc1c[nH]c2ccccc12)C(=O)N[C@@H](C(=O)N[C@@H](Cc1c[nH]c2ccccc12)C(=O)N[C@H](CC(C)C)C(=O)N[C@@H](Cc1c[nH]c2ccccc12)C(=O)N[C@@H](C(=O)N[C@@H](Cc1c[nH]c2ccccc12)C(=O)NCCO)C(C)C)C(C)C)C(C)C)C(C)C [compound 4297] (For-VGA[dL]A[dL]V[dV]W[dV]W[dL]W[dV]W-NHCH2CH2OH)	2.3%	1.29	+
CNC(=O)C[C@@H](NC(=O)[C@@H](NC(=O)[C@@H](CC(C)C)NC(=O)[C@H](C)NC(=O)[C@H](NC(=O)[C@H](C)NC(=O)CNC(=O)[C@@H](NC=O)C(C)C)C(C)C)C(C)C)C(=O)N[C@@H](Cc1c[nH]c2ccccc12)C(=O)N[C@@H](C(=O)N[C@@H](Cc1c[nH]c2ccccc12)C(=O)N[C@@H](C(=O)N[C@@H](Cc1c[nH]c2ccccc12)C(=O)N[C@@H](C(=O)N[C@@H](Cc1c[nH]c2ccccc12)C(=O)NCCO)C(C)C)C(C)C)C(C)C [compound 8459] (For-VGA[dV]A[dL]V[dD](NHMe)W[dV]W[dV]W[dV]W-NHCH2CH2OH)	47.5%	1.03	-
CC(C)C[C@@H](NC(=O)[C@H](C)NC(=O)[C@H](NC(=O)[C@H](C)NC(=O)CNC(=O)[C@@H](NC=O)C(C)C)[C@H](C)O)C(=O)N[C@H](C(=O)N[C@H](CC(C)C)C(=O)N[C@@H](Cc1c[nH]c2ccccc12)C(=O)N[C@@H](C(=O)N[C@@H](Cc1c[nH]c2ccccc12)C(=O)N[C@H](CC(C)C)C(=O)N[C@@H](Cc1c[nH]c2ccccc12)C(=O)N[C@@H](C(=O)N[C@@H](Cc1c[nH]c2ccccc12)C(=O)NCCO)C(C)C)[C@H](C)O)C(C)C [compound 4545] (For-VGA[dT]A[dL]V[dL]W[dT]W[dL]W[dV]W-NHCH2CH2OH)	100.0%	1.18	-
CC(C)C[C@@H](NC(=O)[C@H](C)NC(=O)[C@H](NC(=O)[C@H](C)NC(=O)CNC(=O)[C@@H](NC=O)C(C)C)C(C)C)C(=O)N[C@H](C(=O)N[C@@H](C(=O)N[C@@H](Cc1c[nH]c2ccccc12)C(=O)N[C@@H](C(=O)N[C@@H](Cc1c[nH]c2ccccc12)C(=O)N[C@H](CC(C)C)C(=O)N[C@@H](Cc1c[nH]c2ccccc12)C(=O)N[C@H](CC(C)C)C(=O)N[C@@H](Cc1c[nH]c2ccccc12)C(=O)NCCO)C(C)C)C(C)C)C(C)C [compound 7169] (For-VGA[dV]A[dL]V[dV]W[dV]W[dL]W[dL]W-NHCH2CH2OH)	90.3%	1.15	+
CNC(=O)C[C@@H](NC(=O)[C@H](Cc1c[nH]c2ccccc12)NC(=O)[C@H](NC(=O)[C@H](Cc1c[nH]c2ccccc12)NC(=O)[C@H](NC(=O)[C@H](Cc1c[nH]c2ccccc12)NC(=O)[C@H](NC(=O)[C@@H](NC(=O)[C@@H](CC(C)C)NC(=O)[C@H](C)NC(=O)[C@H](NC(=O)[C@H](C)NC(=O)CNC(=O)[C@@H](NC=O)C(C)C)C(C)C)C(C)C)C(C)C)C(C)C)C(C)C)C(=O)N[C@@H](Cc1c[nH]c2ccccc12)C(=O)NCCO [compound 7479] (For-VGA[dV]A[dL]V[dV]W[dV]W[dV]W[dD](NHMe)W-NHCH2CH2OH)	100.0%	1.00	-
CNC(=O)C[C@@H](NC(=O)[C@@H](NC(=O)[C@@H](CC(C)C)NC(=O)[C@H](C)NC(=O)[C@H](NC(=O)[C@H](C)NC(=O)CNC(=O)[C@@H](NC=O)C(C)C)C(C)C)C(C)C)C(=O)N[C@@H](Cc1c[nH]c2ccccc12)C(=O)N[C@H](CC(C)C)C(=O)N[C@@H](Cc1c[nH]c2ccccc12)C(=O)N[C@H](CC(C)C)C(=O)N[C@@H](Cc1c[nH]c2ccccc12)C(=O)N[C@@H](C(=O)N[C@@H](Cc1c[nH]c2ccccc12)C(=O)NCCO)C(C)C [compound 3800] (For-VGA[dV]A[dL]V[dD](NHMe)W[dL]W[dL]W[dV]W-NHCH2CH2OH)	100.0%	1.23	-
CC(C)C[C@@H](NC(=O)[C@H](C)NC(=O)CNC(=O)[C@@H](NC=O)C(C)C)C(=O)N[C@@H](C)C(=O)N[C@@H](C(=O)N[C@H](C(=O)N[C@@H](C(=O)N[C@@H](Cc1c[nH]c2ccccc12)C(=O)N[C@@H](C(=O)N[C@@H](Cc1c[nH]c2ccccc12)C(=O)N[C@H](CC(C)C)C(=O)N[C@@H](Cc1c[nH]c2ccccc12)C(=O)N[C@@H](C(=O)N[C@@H](Cc1c[nH]c2ccccc12)C(=O)NCCO)C(C)C)C(C)C)C(C)C)C(C)C)[C@H](C)O [compound 3364] (For-VGA[dL]A[dT]V[dV]W[dV]W[dL]W[dV]W-NHCH2CH2OH)	100.0%	1.09	-
CC(C)C[C@@H](NC(=O)[C@H](C)NC(=O)[C@H](NC(=O)[C@H](C)NC(=O)CNC(=O)[C@@H](NC=O)C(C)C)[C@H](C)O)C(=O)N[C@H](C(=O)N[C@@H](C(=O)N[C@@H](Cc1c[nH]c2ccccc12)C(=O)N[C@@H](C(=O)N[C@@H](Cc1c[nH]c2ccccc12)C(=O)N[C@H](CC(C)C)C(=O)N[C@@H](Cc1c[nH]c2ccccc12)C(=O)N[C@@H](C(=O)N[C@@H](Cc1c[nH]c2ccccc12)C(=O)NCCO)C(C)C)C(C)C)C(C)C)C(C)C [compound 6857] (For-VGA[dT]A[dL]V[dV]W[dV]W[dL]W[dV]W-NHCH2CH2OH)	100.0%	1.16	-
CC(C)C[C@@H](NC(=O)[C@H](Cc1c[nH]c2ccccc12)NC(=O)[C@H](NC(=O)[C@H](Cc1c[nH]c2ccccc12)NC(=O)[C@H](NC(=O)[C@H](Cc1c[nH]c2ccccc12)NC(=O)[C@H](NC(=O)[C@@H](NC(=O)[C@H](NC(=O)[C@H](C)NC(=O)[C@H](NC(=O)[C@H](C)NC(=O)CNC(=O)[C@@H](NC=O)C(C)C)C(C)C)[C@H](C)O)C(C)C)C(C)C)C(C)C)C(C)C)C(=O)N[C@@H](Cc1c[nH]c2ccccc12)C(=O)NCCO [compound 379] (For-VGA[dV]A[dT]V[dV]W[dV]W[dV]W[dL]W-NHCH2CH2OH)	100.0%	1.19	-
CC(C)C[C@@H](NC(=O)[C@H](C)NC(=O)[C@H](NC(=O)[C@H](C)NC(=O)CNC(=O)[C@@H](NC=O)C(C)C)[C@H](C)O)C(=O)N[C@H](C(=O)N[C@@H](C(=O)N[C@@H](Cc1c[nH]c2ccccc12)C(=O)N[C@@H](C(=O)N[C@@H](Cc1c[nH]c2ccccc12)C(=O)N[C@H](CC(C)C)C(=O)N[C@@H](Cc1c[nH]c2ccccc12)C(=O)N[C@H](CC(C)C)C(=O)N[C@@H](Cc1c[nH]c2ccccc12)C(=O)NCCO)C(C)C)C(C)C)C(C)C [compound 9112] (For-VGA[dT]A[dL]V[dV]W[dV]W[dL]W[dL]W-NHCH2CH2OH)	72.6%	1.10	-
CC(C)C[C@@H](NC(=O)[C@H](C)NC(=O)[C@H](NC(=O)[C@H](C)NC(=O)CNC(=O)[C@@H](NC=O)C(C)C)[C@H](C)O)C(=O)N[C@H](C(=O)N[C@H](CC(C)C)C(=O)N[C@@H](Cc1c[nH]c2ccccc12)C(=O)N[C@H](CC(C)C)C(=O)N[C@@H](Cc1c[nH]c2ccccc12)C(=O)N[C@H](CC(C)C)C(=O)N[C@@H](Cc1c[nH]c2ccccc12)C(=O)N[C@H](CC(C)C)C(=O)N[C@@H](Cc1c[nH]c2ccccc12)C(=O)NCCO)C(C)C [compound 7905] (For-VGA[dT]A[dL]V[dL]W[dL]W[dL]W[dL]W-NHCH2CH2OH)	100.0%	1.10	-
CC(C)C[C@@H](NC(=O)[C@H](C)NC(=O)CNC(=O)[C@@H](NC=O)C(C)C)C(=O)N[C@@H](C)C(=O)N[C@@H](C(=O)N[C@H](C(=O)N[C@@H](C(=O)N[C@@H](Cc1c[nH]c2ccccc12)C(=O)N[C@H](CC(C)C)C(=O)N[C@@H](Cc1c[nH]c2ccccc12)C(=O)N[C@H](CC(C)C)C(=O)N[C@@H](Cc1c[nH]c2ccccc12)C(=O)N[C@H](CC(C)C)C(=O)N[C@@H](Cc1c[nH]c2ccccc12)C(=O)NCCO)C(C)C)C(C)C)C(C)C [compound 9000] (For-VGA[dL]A[dV]V[dV]W[dL]W[dL]W[dL]W-NHCH2CH2OH)	7.4%	1.21	+

— PMC7531004, “Discovery of gramicidin A analogues with altered activities by multidimensional screening of a one-bead-one-compound library” (Nature Communications, 2020)
